As to `Nc1cc(O)nn1-c1c(Cl)cc(Cl)cc1Cl`, the melting point was 221 to 223 °C.

As to `COc1ccccc1Oc1c(Cl)nc(-c2cccs2)nc1Cl`, the melting point was 118 to 120 °C.

`O=[N+]([O-])c1cc2nc(O)c(O)nc2c2[nH]nnc12`: the melting point is greater than 300 °C.

As to `CCCC(=O)NCc1ccc(NC(=O)/C=C/c2cnn(C)c2-c2ccc(F)cc2)cc1`, the melting point lay in the range of 259 to 260 °C.

`CC(=O)Nc1ccccc1CS(=O)c1nccn1-c1ccccn1` (stereo not given) registered a melting point of 172 to 173 °C.

Compound `Cc1sc2ccccc2c1Br` displayed a melting point of 39 to 40 °C.

Compound `N#Cc1cnc2c(c1Nc1ccc(Oc3ccccc3)cc1)C=C1N=CN=C1C2` displayed a melting point greater than 270 °C.

For the compound `CN(c1ccc(Cl)cc1)c1nc(=O)c2cccnc2s1`, the melting point was in the range of 189 to 190 °C.

Compound `COc1ccccc1NC(=O)Nc1ccc(CC(=O)O)cc1OC` registered a melting point of 182 to 185 °C.

The compound `COc1ccc2c(c1)C(=O)C(=Cc1cccc([N+](=O)[O-])c1)CC2` yielded a melting point of 175 to 176 °C.

With `CCCn1nc(-c2ccc(OC(=O)CC(C)(C)C)cc2)c2cccc(Cl)c21`, the melting point lay in the range of 71 to 72 °C.

Take `CCCc1nc2ncnn2c(N)c1CCc1ccccc1`: the melting point was in the range of 190 to 191 °C.

For `COc1cc(COc2nn(-c3ccccc3)cc2CO)ccc1OCc1nc(-c2ccco2)oc1C`, the melting point is 127 to 128 °C.

As to `O=C(O)c1cc2c3c(ccc2[nH]1)OC[C@H](CO)O3`, the melting point is 216 to 217 °C.

Regarding `CCCCNC(=O)C(=O)Nc1ccc(OC)cc1N`, the melting point is 180 to 181 °C.

In turn, `Cn1cc(C(=O)O)c(=O)c2cc(F)c(F)c(F)c21` gave a melting point of 255 to 258 °C.

`O=c1[nH]c2ncc(-c3ccc(-c4nc[nH]n4)cc3)nc2n1CCC1CCOCC1`: the melting point was in the range of 263 to 266 °C.

`Cn1c(C(F)(F)F)cc(=O)n(-c2cc(OC(=O)NC3CCCCC3)c(Cl)cc2F)c1=O` yielded a melting point of 171 to 173 °C.

Compound `COC(=O)c1ncsc1S(=O)(=O)Cl` yielded a melting point of 94 to 97.5 °C.

With `CC(C)(C)c1cc(Cn2nc(CCCCCCCCc3nn(Cc4cc(C(C)(C)C)c(O)c(C(C)(C)C)c4)c(=O)o3)oc2=O)cc(C(C)(C)C)c1O`, the melting point turned out to be 142 °C.

Take `CC1c2ccccc2-c2[nH]c3ccccc3c21` (stereo not given): the melting point is 153 to 155 °C.

`NC1CCN(c2c(F)c(F)c3c(=O)c(C(=O)O)cn(C4CC4)c3c2F)C1` (stereo not given) had a melting point of 290 to 292 °C.

In turn, `CC(C)(O)c1cnn2c(-c3cccc(-c4ccccc4C#N)c3)cnc2n1` had a melting point of 166 °C.

`CCOC(=O)OC1CCN(C(=O)OCC)Cc2cc3ccccc3nc21` (stereo not given) yielded a melting point of less than 40 °C.

The compound `Cc1ncc2c(n1)N(CC(O)CO)C(=O)CO2` (stereo not given) had a melting point of 70 to 72 °C.

`COC(=O)CC(=O)c1nccn1C` yielded a melting point of 142 to 143 °C.

Compound `COc1ccc(-c2c(C(=O)O)[nH]c3cc(OC)c(OC)cc23)cc1OC` had a melting point of 198 to 200 °C.

`CCOc1cc2c(C[C@H](C)N)c3n(c2cc1F)CCC3`: the melting point was 107 °C.

As to `c1ccc2c(CCCCN3CCc4c(sc5ccccc45)C3)c[nH]c2c1`, the melting point was in the range of 113 to 115 °C.

For `COC(=O)[C@@H](CCN1C(=O)c2ccccc2C1=O)Oc1c(Br)cc(-c2c(Br)ccc3sc4ccccc4c23)cc1Br`, the melting point lay within 99 to 101 °C.

On to `CCc1cc2c(cc1OCc1ccccc1)CCC1C2CCC2(C)C(CCO[Si](c3ccccc3)(c3ccccc3)C(C)(C)C)CCC12` (stereo not given), for which the melting point is 48 to 50 °C.

In the case of `CCOC(=O)c1coc(-c2ccc(CCl)cc2)n1`, the melting point fell in the range of 115 to 117 °C.

The compound `O=c1oc2c(c(O)c1C(c1ccccc1)C1CC1)CCCCCCCCCC2` (stereo not given) gave a melting point of 97.8 to 99 °C.

`COC(=O)c1cc(Cl)c(C(=O)OC)cc1Cl` registered a melting point of 134 to 135 °C.

With `CC(=O)NCC1CC1c1c(C#N)ccc2nn(C)cc12` (stereo not given), the melting point was in the range of 189 to 192 °C.

For the origin of these results see a melting point compilation (Tetko et al.; mined from patent text by program, amines drawn as free bases though some values may be those of a salt).
